Columns and labels:
[1] = target: T1, MED1 (Homo sapiens, UniProt Q15648); experiment: In vitro droplet assay, small molecule partitioning into MED1 condensates; format: binding; settings: confocal fluorescence; Example 2: 125 mM NaCl, 10% PEG, 10 μM protein; fluorescent or fluorescently labeled drug
T1 construct: MED1—amino acids 600-1581; 6xHis (N); made in house; host or cells: LOBSTR cells (E. coli)
Procedure: Recombinant BFP, GFP, or mCherry fusion proteins were concentrated and desalted to an appropriate protein concentration and 125 mM NaCl using Amicon Ultra centrifugal filters (30K MWCO, Millipore). Recombinant protein was added too. […] The protein solution was immediately loaded onto glass bottom 384 well plate (Cellvis P384-1.5H-N) and imaged with an Andor confocal microscope with a 150× objective. Unless indicated, images presented are of droplets settled on the glass coverslip.
Drug and small molecule concentrations used in the droplet experiments are as follows:
To analyze in vitro droplet experiments, custom Python scripts using the scikit-image package were written to identify droplets and characterize their size, shape and intensity. Droplets were segmented from average images of captured channels on various criteria: (1) an intensity threshold that was three s.d. above the mean of the image; (2) size thresholds (20 pixel minimum droplet size); and (3) a minimum circularity (circularity=4π·areaperimeter2) (circularity=4π·areaperimeter2) of 0.8 (1 being a perfect circle). After segmentation, mean intensity for each droplet was calculated while excluding pixels near the phase interface, and background-corrected by subtracting intensity of dark images of droplet formation buffer only. Droplets identified in the channel of the fluorescent protein from ten independent fields of view were quantified for each experiment. The maximum intensity of signal within the droplets was calculated for each channel, the maximum intensity in the drug channel was termed “maximum drug intensity”. To obtain the intensity of drug or dye alone in the diffuse state (termed “diffuse drug intensity”), the compound was added to droplet formation buffer at same concentration used in the droplet assay. This was then imaged on a confocal fluorescent microscope. The resulting image was processed in FIJI to obtain the fluorescent intensity of the field. To obtain the fluorescent intensity of protein droplets that bleed through in the drug channel (termed “background intensity”) protein droplets were imaged in the fluorescent channel in which the drug fluoresces and processed as above to obtain the average maximum intensity within the droplet across 10 images. The enrichment ratio was obtained by the following formula [(maximum drug intensity)−(background intensity)]/(diffuse drug intensity). The box plots show the distributions of all droplets. Each dot represents an individual droplet.

[2] = target: T2, MED1 condensates (Homo sapiens, UniProt Q15648); experiment: Determination of partitioning by spectrophotometry and quantitative phase microscopy; format: binding
T2 construct: MED1—amino acids 600-1581; 6xHis (N); made in house; host or cells: LOBSTR cells (E. coli)
Source text: Here, an expression is derived briefly for the partition coefficient of a client molecule into a condensed phase in terms of quantities that are readily measurable experimentally. A sample composed of two coexisting phases is considered, named dilute and condensed, with volume fractions ϕdilute and […]. If a client molecule (e.g. a drug) is also present in the sample at an average concentration of ctotal, then mass conservation requires that
the ratio is estimated ctotal/cdilute from fluorescence spectroscopy measurements, as described in a subsequent section, while ϕcond, it is inferred from the lever rule (M. Rubinstein, R. H. Colby, Polymer Phyics (Oxford University Press, 2003) as follows: denoting the concentration of scaffold protein (e.g. MED1) by s, mass conservation gives stotal=sdiluteϕdilute+scondϕcond, in analogy with Eq. 1. Again using the requirement that the volume fractions of coexisting phases sum to 1, this can be rearranged to yield
where stotal and sdilute are measured spectrophotometrically from optical absorbance at 280 nm, and scond is measured from quantitative phase microscopy, using a coherence-controlled holographic microscope (Q-Phase, Telight (formerly TESCAN), Bmo, CZ) equipped with 40× dry objectives (NA=0.90). […]
where A is the measured absorbance (in Absorbance Units (AU)), I0 is the intensity of the incident light at a given wavelength, I is the transmitted intensity, L the path length through the sample, and c the concentration of the absorbing species. […] The partitioned drug was measured by using spin down assay. […] The supernatant was collected and measured the concentrations of the drug. The partitioned drug was calculated by subtracting from the total known concentration of drug added.
Quantitative phase measurements were performed using a coherence-controlled holographic microscope (Q-Phase, Telight (formerly TESCAN), Brno, CZ) equipped with 40× dry objectives (NA=0.90) as follows. […]
Q-PHASE software was used to construct compensated phase images from acquired holograms, which were subsequently analyzed in MATLAB using custom code. […]

T1 sequence (Q15648 600-1581): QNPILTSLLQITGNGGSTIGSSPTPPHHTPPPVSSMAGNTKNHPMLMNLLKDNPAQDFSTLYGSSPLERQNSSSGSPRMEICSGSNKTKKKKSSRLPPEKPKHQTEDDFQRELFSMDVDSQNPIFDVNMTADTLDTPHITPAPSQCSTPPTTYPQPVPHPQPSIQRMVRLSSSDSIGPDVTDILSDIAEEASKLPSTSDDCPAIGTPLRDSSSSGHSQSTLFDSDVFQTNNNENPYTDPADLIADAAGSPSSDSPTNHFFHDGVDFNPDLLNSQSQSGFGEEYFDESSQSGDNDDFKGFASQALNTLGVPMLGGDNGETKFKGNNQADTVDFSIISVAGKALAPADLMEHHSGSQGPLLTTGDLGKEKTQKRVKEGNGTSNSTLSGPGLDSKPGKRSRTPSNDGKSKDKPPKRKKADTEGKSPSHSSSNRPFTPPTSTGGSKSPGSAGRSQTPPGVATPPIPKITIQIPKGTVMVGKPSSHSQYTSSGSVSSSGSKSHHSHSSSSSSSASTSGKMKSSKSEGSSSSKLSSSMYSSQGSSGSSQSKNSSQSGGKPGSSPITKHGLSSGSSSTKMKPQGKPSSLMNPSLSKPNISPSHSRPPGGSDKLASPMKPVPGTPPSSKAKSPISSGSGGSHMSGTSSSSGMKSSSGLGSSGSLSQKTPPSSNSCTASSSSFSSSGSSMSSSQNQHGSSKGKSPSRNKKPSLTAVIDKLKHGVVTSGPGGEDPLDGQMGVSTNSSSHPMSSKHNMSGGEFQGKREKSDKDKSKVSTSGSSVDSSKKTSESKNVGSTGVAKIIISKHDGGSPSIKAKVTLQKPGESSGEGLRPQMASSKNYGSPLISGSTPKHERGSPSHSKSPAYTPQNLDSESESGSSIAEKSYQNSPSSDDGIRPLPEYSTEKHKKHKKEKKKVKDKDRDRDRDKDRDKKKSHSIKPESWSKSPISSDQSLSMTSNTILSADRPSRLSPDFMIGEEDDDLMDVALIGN
T2 sequence (Q15648 600-1581): as above

N.N.[Cl][Pt][Cl] [cisplatin]
partitioning / incorporation into MED1 droplets [1]: selectively concentrated in MED1 droplets
partition coefficient in MED1 droplets [2]: up to 600
partition ratio in MED1 condensates ([2]; uv spectroscopy of drug remaining in solution plus condensate volume estimate): up to 600 fold
